# Species on record: Rattus norvegicus
# Assay: DrugMatrix - Regimen: Daily Repeat
# Type: toxicity, organism-based, Sprague-Dawley
# Set-up: regimen Daily Repeat, gender Male, age 6-8 weeks
# Settings: in vivo, po, 10 mg/kg, route oral GAVAGE, dose level Low, vehicle .5 % CMC; for ABSOLUTE BASOPHIL / ABSOLUTE EOSINOPHIL / ABSOLUTE LYMPHOCYTE / ABSOLUTE MONOCYTE / ABSOLUTE SEGMENTED NEUTROPHIL / BASOPHIL / EOSINOPHIL / ERYTHROCYTE COUNT / HEMATOCRIT / HEMOGLOBIN / LEUKOCYTE COUNT / LYMPHOCYTE / MEAN CORPUSCULAR HEMOGLOBIN / MEAN CORPUSCULAR HEMOGLOBIN CONCENTRATION / MEAN CORPUSCULAR VOLUME / MONOCYTE / NEUTROPHIL / NUCLEATED RED BLOOD CELLS / PLATELET COUNT: tissue Blood; for ALANINE AMINOTRANSFERASE / ALBUMIN / ALKALINE PHOSPHATASE / ASPARTATE AMINOTRANSFERASE / BLOOD UREA NITROGEN / CARBON DIOXIDE / CHLORIDE / CHOLESTEROL / CREATINE PHOSPHOKINASE / CREATININE / GLUCOSE / LACTATE DEHYDROGENASE / LIPASE / PHOSPHORUS / POTASSIUM / SODIUM / TOTAL BILIRUBIN / TOTAL PROTEIN / URIC ACID: tissue Plasma
smiles,measurement,setting,value
CC(=O)O[C@]1(C(C)=O)CC[C@H]2[C@@H]3C=C(Cl)C4=CC(=O)CC[C@]4(C)[C@H]3CC[C@@]21C [CHLORMADINONE ACETATE],ABSOLUTE BASOPHIL,"72 h, time 3 day",0 CELLS/uL
same,ABSOLUTE EOSINOPHIL,"72 h, time 3 day",58.33 CELLS/uL
same,ABSOLUTE LYMPHOCYTE,"72 h, time 3 day",11175 CELLS/uL
same,ABSOLUTE MONOCYTE,"72 h, time 3 day",59.67 CELLS/uL
same,ABSOLUTE SEGMENTED NEUTROPHIL,"72 h, time 3 day",507 CELLS/uL
same,BASOPHIL,"72 h, time 3 day",0%
same,EOSINOPHIL,"72 h, time 3 day",0.33%
same,ERYTHROCYTE COUNT,"72 h, time 3 day",5.63 x10E6/uL
same,HEMATOCRIT,"72 h, time 3 day",35.5%
same,HEMOGLOBIN,"72 h, time 3 day",14.3 G/DL
same,LEUKOCYTE COUNT,"72 h, time 3 day",11.8 x10E3/uL
same,LYMPHOCYTE,"72 h, time 3 day",94.67%
same,MEAN CORPUSCULAR HEMOGLOBIN,"72 h, time 3 day",25.37 pg
same,MEAN CORPUSCULAR HEMOGLOBIN CONCENTRATION,"72 h, time 3 day",40.27 G/DL
same,MEAN CORPUSCULAR VOLUME,"72 h, time 3 day",63 fL
same,MONOCYTE,"72 h, time 3 day",0.67%
same,NEUTROPHIL,"72 h, time 3 day",4.33%
same,NUCLEATED RED BLOOD CELLS,"72 h, time 3 day",0 /100WBC
same,PLATELET COUNT,"72 h, time 3 day",925.33 x10E3/uL
same,ALANINE AMINOTRANSFERASE,"72 h, time 3 day",52 u/L
same,ALBUMIN,"72 h, time 3 day",4.5 G/DL
same,ALKALINE PHOSPHATASE,"72 h, time 3 day",475 u/L
same,ASPARTATE AMINOTRANSFERASE,"72 h, time 3 day",70.67 u/L
same,BLOOD UREA NITROGEN,"72 h, time 3 day",17.67 mg/dL
same,CARBON DIOXIDE,"72 h, time 3 day",33 mmol/L
same,CHLORIDE,"72 h, time 3 day",101 MEQ/L
same,CHOLESTEROL,"72 h, time 3 day",81.67 mg/dL
same,CREATINE PHOSPHOKINASE,"72 h, time 3 day",138.33 u/L
same,CREATININE,"72 h, time 3 day",0.17 mg/dL
same,GLUCOSE,"72 h, time 3 day",135.67 mg/dL
same,LACTATE DEHYDROGENASE,"72 h, time 3 day",134.67 u/L
same,LIPASE,"72 h, time 3 day",12 u/L
same,PHOSPHORUS,"72 h, time 3 day",11.17 mg/dL
same,POTASSIUM,"72 h, time 3 day",6.06 MEQ/L
same,SODIUM,"72 h, time 3 day",149.35 MEQ/L
same,TOTAL BILIRUBIN,"72 h, time 3 day",0.3 mg/dL
same,TOTAL PROTEIN,"72 h, time 3 day",6.37 G/DL
same,URIC ACID,"72 h, time 3 day",0.67 mg/dL
same,ABSOLUTE BASOPHIL,"120 h, time 5 day",0 CELLS/uL
same,ABSOLUTE EOSINOPHIL,"120 h, time 5 day",0 CELLS/uL
same,ABSOLUTE LYMPHOCYTE,"120 h, time 5 day",14416.33 CELLS/uL
same,ABSOLUTE MONOCYTE,"120 h, time 5 day",46.33 CELLS/uL
same,ABSOLUTE SEGMENTED NEUTROPHIL,"120 h, time 5 day",1304 CELLS/uL
same,BASOPHIL,"120 h, time 5 day",0%
same,EOSINOPHIL,"120 h, time 5 day",0%
same,ERYTHROCYTE COUNT,"120 h, time 5 day",6.23 x10E6/uL
same,HEMATOCRIT,"120 h, time 5 day",37.17%
same,HEMOGLOBIN,"120 h, time 5 day",14.57 G/DL
same,LEUKOCYTE COUNT,"120 h, time 5 day",15.77 x10E3/uL
same,LYMPHOCYTE,"120 h, time 5 day",91.67%
same,MEAN CORPUSCULAR HEMOGLOBIN,"120 h, time 5 day",23.47 pg
same,MEAN CORPUSCULAR HEMOGLOBIN CONCENTRATION,"120 h, time 5 day",39.23 G/DL
same,MEAN CORPUSCULAR VOLUME,"120 h, time 5 day",59.77 fL
same,MONOCYTE,"120 h, time 5 day",0.33%
same,NEUTROPHIL,"120 h, time 5 day",8%
same,NUCLEATED RED BLOOD CELLS,"120 h, time 5 day",0 /100WBC
same,PLATELET COUNT,"120 h, time 5 day",1116.33 x10E3/uL
same,ALANINE AMINOTRANSFERASE,"120 h, time 5 day",54.33 u/L
same,ALBUMIN,"120 h, time 5 day",4.47 G/DL
same,ALKALINE PHOSPHATASE,"120 h, time 5 day",380.67 u/L
same,ASPARTATE AMINOTRANSFERASE,"120 h, time 5 day",92.67 u/L
same,BLOOD UREA NITROGEN,"120 h, time 5 day",14 mg/dL
same,CARBON DIOXIDE,"120 h, time 5 day",25.67 mmol/L
same,CHLORIDE,"120 h, time 5 day",102.33 MEQ/L
same,CHOLESTEROL,"120 h, time 5 day",79.67 mg/dL
same,CREATINE PHOSPHOKINASE,"120 h, time 5 day",290.67 u/L
same,CREATININE,"120 h, time 5 day",0.13 mg/dL
same,GLUCOSE,"120 h, time 5 day",156.67 mg/dL
same,LACTATE DEHYDROGENASE,"120 h, time 5 day",269 u/L
same,LIPASE,"120 h, time 5 day",9.67 u/L
same,PHOSPHORUS,"120 h, time 5 day",12.67 mg/dL
same,POTASSIUM,"120 h, time 5 day",7.15 MEQ/L
same,SODIUM,"120 h, time 5 day",146.13 MEQ/L
same,TOTAL BILIRUBIN,"120 h, time 5 day",0.2 mg/dL
same,TOTAL PROTEIN,"120 h, time 5 day",6.27 G/DL
same,URIC ACID,"120 h, time 5 day",1.77 mg/dL

# — ChEMBL document CHEMBL3885881, “DrugMatrix”
